Where a name gives a salt, the structure may show the parent alone. Read-outs that look alike come from different tables or passages of the source.
How the values were obtained:
Format in all cases: cell-based
Xenopus laevis VDR = biological target: T1, Xenopus laevis VDR (Xenopus laevis, UniProt O13124); test: luciferase reporter transactivation assay in HepG2-NTCP cells, GAL4/xlVDR LBD chimera with tk-UAS-Luc
T1 sequence (O13124 90-422): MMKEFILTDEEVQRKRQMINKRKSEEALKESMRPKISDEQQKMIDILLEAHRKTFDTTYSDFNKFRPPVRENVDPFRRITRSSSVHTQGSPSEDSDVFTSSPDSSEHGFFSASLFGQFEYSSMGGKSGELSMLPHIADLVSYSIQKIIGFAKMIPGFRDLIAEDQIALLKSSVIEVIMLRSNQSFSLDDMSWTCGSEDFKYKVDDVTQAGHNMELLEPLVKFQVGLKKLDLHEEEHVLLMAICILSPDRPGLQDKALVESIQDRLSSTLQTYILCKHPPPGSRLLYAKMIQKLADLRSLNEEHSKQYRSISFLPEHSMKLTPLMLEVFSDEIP

Zebrafish VDR = biological target: T2, Zebrafish VDR (Danio rerio, UniProt Q9PTN2); test: luciferase reporter transactivation assay in HepG2-NTCP cells, GAL4/zfVDR LBD chimera with tk-UAS-Luc
T2 sequence (Q9PTN2 121-453): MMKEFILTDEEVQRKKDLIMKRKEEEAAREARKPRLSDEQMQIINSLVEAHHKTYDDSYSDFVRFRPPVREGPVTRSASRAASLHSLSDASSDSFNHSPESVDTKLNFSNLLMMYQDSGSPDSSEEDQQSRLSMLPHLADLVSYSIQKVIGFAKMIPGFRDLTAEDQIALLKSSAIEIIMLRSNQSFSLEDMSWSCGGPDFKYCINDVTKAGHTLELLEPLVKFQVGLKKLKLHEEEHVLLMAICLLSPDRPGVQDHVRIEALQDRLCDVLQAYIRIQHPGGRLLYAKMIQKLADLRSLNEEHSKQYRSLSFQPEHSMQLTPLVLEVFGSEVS

Sea lamprey VDR = biological target: T3, Sea lamprey VDR (Petromyzon marinus, UniProt Q7ZZY9)
T3 sequence (Q7ZZY9 92-406): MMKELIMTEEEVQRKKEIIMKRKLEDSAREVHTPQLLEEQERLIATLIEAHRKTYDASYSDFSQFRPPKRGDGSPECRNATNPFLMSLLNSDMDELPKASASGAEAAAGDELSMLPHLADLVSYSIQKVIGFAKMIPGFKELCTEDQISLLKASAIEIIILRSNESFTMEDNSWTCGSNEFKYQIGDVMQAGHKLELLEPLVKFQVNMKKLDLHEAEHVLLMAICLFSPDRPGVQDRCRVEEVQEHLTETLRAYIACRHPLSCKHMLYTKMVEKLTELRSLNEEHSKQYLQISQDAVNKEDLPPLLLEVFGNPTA

[1] = screening for activators, at least three concentrations of each drug

| Compound | Effect on Xenopus laevis VDR (Xenopus laevis VDR; [1]) | Effect on zebrafish VDR (Zebrafish VDR; [1]) | Effect on sea lamprey VDR (Sea lamprey VDR) | Effect on sea lamprey VDR (Sea lamprey VDR; [1]) | Effect on Xenopus laevis VDR (Xenopus laevis VDR) | Effect on zebrafish VDR (Zebrafish VDR) |
| --- | --- | --- | --- | --- | --- | --- |
| C[C@H](CCC(=O)O)[C@H]1CC[C@H]2[C@@H]3C[C@H](O)[C@@H]4C[C@H](O)CC[C@]4(C)[C@H]3CC[C@]12C [5b-Cholanic acid-3a,6a-diol] | No effect | No effect | No effect | – | – | – |
| AM-580 | No effect | No effect | – | No effect | – | – |
| COc1cc(C)c(/C=C/C(C)=C/C=C/C(C)=C/C(=O)O)c(C)c1C [Aciretin] | No effect | No effect | – | No effect | – | – |
| CC(C)(Sc1ccc(CCN(CCCCC2CCCCC2)C(=O)NC2CCCCC2)cc1)C(=O)O [GW 7647] | No effect | No effect | – | No effect | – | – |
| CC(C)=CCC/C(C)=C/CC/C(C)=C/CC/C(C)=C/CO [Geranygeraniol] | No effect | No effect | – | No effect | – | – |
| CC1=C(/C=C/C(C)=C/C=C/C(C)=C/CO)C(C)(C)CCC1 [Retinol] | No effect | No effect | – | No effect | – | – |
| CC(C)(c1ccc(OCC2CO2)cc1)c1ccc(OCC2CO2)cc1 (stereo not drawn) [BADGE] | No effect | No effect | – | No effect | – | – |
| C[C@]12CC[C@H]3[C@@H](CCC4=CC(=O)CC[C@@]43C)[C@@H]1CC[C@@H]2C(=O)CO [Cortexone (4-Pregnen-21-ol-3,20-dione), 4-Pregnen-21-ol-3,20-dione] | No effect | No effect | – | No effect | – | – |
| C#C[C@]1(O)CC[C@H]2[C@@H]3CCC4=CC(=O)CC[C@@H]4[C@H]3CC[C@@]21C [Norethindrone] | No effect | No effect | No effect | – | – | – |
| C=CC[C@@H]1[C@H](O)CC[C@@]2(C)[C@H]1CC[C@@H]1[C@@H]2CC[C@]2(C)[C@@H]([C@H](C)CCCC(C)C)CC[C@@H]12 [LY 295427] | No effect | No effect | – | No effect | – | – |
| 4-Pregnen-17,20b-diol-3-one sulfate | No effect | No effect | – | No effect | – | – |
| C[C@@]12C=CC[C@H]1[C@@H]1CC=C3C[C@@H](O)CC[C@]3(C)[C@H]1CC2 [5,16-Androstadien-3b-ol] | No effect | No effect | – | No effect | – | – |
| C[C@]12CC[C@@H]3c4ccc(O)cc4CC[C@H]3[C@@H]1C[C@@H](O)[C@@H]2O [Estriol] | No effect | No effect | – | No effect | – | – |
| C[C@]12CC[C@@H](O)C[C@@H]1CC[C@@H]1[C@@H]2CC[C@]2(C)C(=O)CC[C@@H]12 [Androsterone] | No effect | No effect | – | No effect | – | – |
| C[C@]12CCC(=O)C=C1CC[C@@H]1[C@@H]2[C@@H](O)C[C@@]2(C)[C@H]1CC[C@]2(O)C(=O)CO [Cortisol] | No effect | No effect | – | No effect | – | – |
| CC[C@H](CC[C@@H](C)[C@H]1CC[C@H]2[C@@H]3CC=C4C[C@@H](O)CC[C@]4(C)[C@H]3CC[C@]12C)C(C)C [Beta-sitosterol] | No effect | No effect | – | No effect | – | – |
| COC(=O)[C@H]1[C@H]2C[C@@H]3c4[nH]c5cc(OC)ccc5c4CCN3C[C@H]2C[C@@H](OC(=O)c2cc(OC)c(OC)c(OC)c2)[C@@H]1OC [Reserpine] | No effect | No effect | – | No effect | – | – |
| C[C@@]12CCC[C@H]1[C@@H]1CC[C@H]3C[C@@H](O)CC[C@]3(C)[C@H]1CC2 [5a-Androstan-3b-ol] | No effect | No effect | – | No effect | – | – |

| Compound | Effect on Xenopus laevis VDR (Xenopus laevis VDR; [1]) | Effect on zebrafish VDR (Zebrafish VDR; [1]) | Effect on sea lamprey VDR (Sea lamprey VDR) | Effect on sea lamprey VDR (Sea lamprey VDR; [1]) | Effect on Xenopus laevis VDR (Xenopus laevis VDR) | Effect on zebrafish VDR (Zebrafish VDR) |
| --- | --- | --- | --- | --- | --- | --- |
| C[C@H](CC[C@@H]1OC1(C)C)[C@H]1CC[C@H]2[C@@H]3CC=C4C[C@@H](O)CC[C@]4(C)[C@H]3CC[C@]12C [24(S)-,25-Epoxycholesterol] | No effect | No effect | – | No effect | – | – |
| C[C@]12CC[C@H](O)C[C@@H]1CC[C@@H]1[C@@H]2CC[C@]2(C)C=CC[C@@H]12 [16,(5a)-Androsten-3b-ol] | No effect | No effect | – | No effect | – | – |
| CC/C=C\C/C=C\C/C=C\C/C=C\C/C=C\C/C=C\CCC(=O)O [Docosa-4Z,7Z,10Z,13Z,16Z,19Z-hexanoic acid] | No effect | No effect | – | No effect | – | – |
| CC(C)=CCC[C@@H](C)[C@H]1CC[C@@]2(C)[C@@H]3CC[C@H]4C(C)(C)[C@@H](O)CC[C@@]45C[C@@]35CC[C@]12C [Cycloartenol] | No effect | No effect | – | No effect | – | – |
| C[C@]12CC[C@@H](O)C[C@@H]1CC[C@@H]1[C@@H]2[C@@H](O)C[C@]2(C)[C@@H](C(=O)CO)CC[C@@H]12 [5a-Pregnan-3a,11b,21-triol-20-one] | No effect | No effect | – | No effect | – | – |
| Clc1cnc(Oc2ccc(Oc3ncc(Cl)cc3Cl)cc2)c(Cl)c1 [TCPOBOP] | No effect | No effect | – | No effect | – | – |
| Cc1cccc(Nc2cc(Cl)nc(SCC(=O)O)n2)c1C [WY-14643] | No effect | No effect | – | No effect | – | – |
| CC(=O)[C@H]1[C@H](C#N)C[C@H]2[C@@H]3CC=C4C[C@@H](O)CC[C@]4(C)[C@H]3CC[C@@]21C [Pregnenolone-16a-carbonitrile] | No effect | No effect | – | No effect | – | – |
| CC(CCC(=O)NCC(=O)O)C1CCC2C3CCC4CC(O)CCC4(C)C3CC(O)C12C (stereo not drawn) [Glycodeoxycholic acid] | No effect | No effect | – | No effect | – | – |
| C[C@]12CC[C@@H](O)C[C@H]1CC[C@@H]1[C@@H]2CC[C@]2(C)C(=O)CC[C@@H]12 [Etiocholanolone] | No effect | No effect | – | No effect | – | – |
| CC(C)(Oc1ccc(CCNC(=O)c2ccc(Cl)cc2)cc1)C(=O)O [Bezafibrate] | No effect | No effect | – | No effect | – | – |
| O=S(=O)(c1ccccc1)N(CC(F)(F)F)c1ccc(C(O)(C(F)(F)F)C(F)(F)F)cc1 [T-0901317] | None of these three VDRs were activated | None of these three VDRs were activated | – | None of these three VDRs were activated | – | – |
| CC(C)CCC[C@@H](C)[C@H]1CC[C@H]2[C@@H]3CC[C@H]4C[C@@H](OS(=O)(=O)O)CC[C@]4(C)[C@H]3CC[C@]12C [5a-cholestan-3b-ol sulfate] | No effect | No effect | – | No effect | – | – |
| CCCOC(=O)c1ccc(O)cc1 [n-Propyl 4-hydroxybenzoate] | No effect | No effect | – | No effect | – | – |
| COc1c(O)ccc2c1CC[C@@H]1[C@@H]2CC[C@]2(C)C(=O)CC[C@@H]12 [4-Methoxyestrone] | – | – | No effect | – | No effect | No effect |
| C[C@]12CC[C@@H]3c4ccc(O)cc4CC[C@H]3[C@@H]1[C@@H](O)[C@@H](O)[C@@H]2O [Estetrol] | No effect | No effect | – | No effect | – | – |
| Cc1ccc(C)c(OCCCC(C)(C)C(=O)O)c1 [Gemfibrozil] | No effect | No effect | – | No effect | – | – |

Reference: paper PMC2263054, “Functional evolution of the vitamin D and pregnane X receptors” (BMC Evolutionary Biology, 2007)
